Measurements reported in patent US11713307B2, “Heteroaryl-biphenyl amides for the treatment of PD-L1 diseases” (CHEMOCENTRYX, INC., priority 2019, dated 2023).

target: human PD-L1 (Homo sapiens (Human), UniProt Q9NZQ7); assay: Enzyme-Linked Immunosorbent Assay—ELISA (PD-1/PD-L1 binding); conditions: plates coated with human PD-L1; Human PD-1 and biotin added; absorbance at 450 nm
Method: 96 Well plates were coated with 1 μg/mL of human PD-L1 (obtained from R&D) in PBS overnight at 4° C. The wells were then blocked with 2% BSA in PBS (W/V) with 0.05% TWEEN-20 for 1 hour at 37° C. The plates were washed 3 times with PBS/0.05% TWEEN-20 and the compounds were serial diluted (1:5) in dilution medium and added to the ELISA plates. Human PD-1 and biotin 0.3 μg/mL (ACRO Biosystems) were added and incubated for 1 hour at 37° C. then washed 3 times with PBS/0.05% TWEEN-20. A second block was performed with 2% BSA in PBS (W/V)/0.05% TWEEN-20 for 10 min at 37° C. and the plates were washed 3 times with PBS/0.05% TWEEN-20. Streptavidin-HRP was added for 1 hour at 37° C. then the plates were washed 3 times with PBS/0.05% TWEEN-20. TMB substrate was added and reacted for 20 min at 37° C. A stop solution (2 N aqueous H2SO4) was added. The absorbance was read at 450 nm using a micro-plate spectrophotometer. The results are shown in Table 1: IC50 values are provided as follows: from 1000 to 10,000 nM (+); from 10 up to 1000 nM (++); less than 10 nM (+++).

Sequence of human PD-L1 (Q9NZQ7 19-239): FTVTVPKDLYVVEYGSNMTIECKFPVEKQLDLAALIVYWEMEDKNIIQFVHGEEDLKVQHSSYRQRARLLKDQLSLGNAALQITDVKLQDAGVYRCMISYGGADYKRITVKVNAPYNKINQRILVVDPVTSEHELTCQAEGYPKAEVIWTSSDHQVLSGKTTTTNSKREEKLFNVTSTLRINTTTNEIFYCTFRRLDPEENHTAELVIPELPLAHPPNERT

SMILES | IC50
COc1nc(-c2cccc(-c3cccc(NC(=O)c4cn(C)c(=O)n(C)c4=O)c3C)c2Cl)ccc1CN[C@@H]1CCC[C@@H]1O [Compound 1.011] | < 10 nM
COc1cc(-c2cccc(-c3cccc(NC(=O)c4cn(C)c(=O)n(C)c4=O)c3C)c2Cl)cnc1CN[C@@H]1CCOC[C@@H]1O [Compound 1.009] | < 10 nM
COc1nc(-c2cccc(-c3cccc(NC(=O)c4cn(C)c(=O)n(C)c4=O)c3C)c2Cl)ccc1CN1CC[C@](C)(O)C1 [Compound 1.019] | < 10 nM

More lines, now with the values ahead:

IC50 | SMILES
< 10 nM | COc1nc(-c2cccc(-c3cccc(NC(=O)c4cn(C)c(=O)n(C)c4=O)c3Cl)c2Cl)ccc1CN1CC[C@@H](C(=O)O)C1 [Compound 1.074]
< 10 nM | COc1nc(-c2cccc(-c3cccc(NC(=O)c4cn(C)c(=O)n(C)c4=O)c3C)c2Cl)ccc1CN1CC2(CCC(=O)N2)C1 [Compound 1.096]
